# Source: patent US12146183B2, “Compound and a method for identifying a protein using said compound” (CITY UNIVERSITY OF HONG KONG, priority 2020, dated 2024)
# Experiments:
# Type in all cases: biochemical
# Sirt2 [1] = target: T1, Sirt2 (Homo sapiens, UniProt Q8IXJ6); assay: Fluorimeter delipoylation assay of probe KTlip with Sirt2
# T1 construct: made in house
# T1 sequence (Q8IXJ6 1-389): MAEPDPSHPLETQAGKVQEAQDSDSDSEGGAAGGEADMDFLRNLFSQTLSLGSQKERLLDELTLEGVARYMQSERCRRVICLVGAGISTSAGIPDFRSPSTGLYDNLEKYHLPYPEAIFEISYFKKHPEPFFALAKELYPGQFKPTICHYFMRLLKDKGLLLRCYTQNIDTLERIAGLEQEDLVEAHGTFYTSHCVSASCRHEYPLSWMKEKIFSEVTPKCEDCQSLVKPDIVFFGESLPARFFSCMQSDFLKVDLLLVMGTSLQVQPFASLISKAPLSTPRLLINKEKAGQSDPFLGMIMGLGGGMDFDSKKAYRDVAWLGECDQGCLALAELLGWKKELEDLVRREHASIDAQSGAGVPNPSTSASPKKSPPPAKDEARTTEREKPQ
# Description: The capacity of HDACs to recognize and remove the lipoyl group of KTlip was examined by a fluorimeter assay. KTlip was incubated with various HDACs at 37° C. in HEPES buffer (pH 8.0). The fluorescence of the enzymatic reactions was then measured accordingly. […] Further HPLC and MS analysis confirmed that the molecular weight of the newly generated peak corresponded to the expected tandem de-lipoylated/exchanged product. […] After enzymatic reaction with Sirt2, a shift of peak absorption from 380 nm to 480 nm was clearly observed. Through detailed kinetic study, the first-order rate constant of the reaction was determined to be 0.013 min-1. […]
# The probe KTlip was incubated with sirtuin and NAD+ at 37° C. in 20 mM HEPES buffer (pH 8.0) containing 150 mM NaCl, 1 mM MgCl2, and 2.7 mM KCl. […] When the enzymatic reaction was complete, the reaction was applied for absorption and fluorescence measurement. The parameter set for absorbance measurement was as follows: UV-visible light, collection region: 300-550 nm. The parameter set for fluorescence measurements was as follows: λex=480 nm, slit width: 5 nm, collection region: 510-600 nm.
# The rate constant was calculated by fitting the fluorescence data to the following equation: Fluorescence intensity=1−exp(−kt) Enzymatic Reaction with Lipoylated Peptides.
# Sirt6 = target: T2, Sirt6 (Homo sapiens, UniProt Q8N6T7); assay: Fluorimeter delipoylation assay of probe KTlip with Sirt6; settings: Sirt6, 37° C., HEPES buffer pH 8.0
# T2 construct: made in house
# T2 sequence (Q8N6T7 whole entry, species assumed): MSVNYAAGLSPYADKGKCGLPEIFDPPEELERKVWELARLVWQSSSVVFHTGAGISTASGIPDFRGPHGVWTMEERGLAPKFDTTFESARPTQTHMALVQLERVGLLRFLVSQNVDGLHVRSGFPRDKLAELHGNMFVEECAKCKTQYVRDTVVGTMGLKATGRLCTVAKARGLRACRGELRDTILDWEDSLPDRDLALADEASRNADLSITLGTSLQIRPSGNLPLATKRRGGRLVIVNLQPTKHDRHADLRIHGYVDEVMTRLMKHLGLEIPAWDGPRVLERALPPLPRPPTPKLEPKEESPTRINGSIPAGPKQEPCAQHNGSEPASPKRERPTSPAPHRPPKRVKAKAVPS
# Description: (§1) The capacity of HDACs to recognize and remove the lipoyl group of KTlip was examined by a fluorimeter assay. KTlip was incubated with various HDACs at 37° C. in HEPES buffer (pH 8.0). The fluorescence of the enzymatic reactions was then measured accordingly. […] Further HPLC and MS analysis confirmed that the molecular weight of the newly generated peak corresponded to the expected tandem de-lipoylated/exchanged product. […] After enzymatic reaction with Sirt2, a shift of peak absorption from 380 nm to 480 nm was clearly observed. Through detailed kinetic study, the first-order rate constant of the reaction was determined to be 0.013 min-1. The Km value of KTlip obtained from the fluorescent method matched well with that from the traditional HPLC method, underscoring that probe KTlip can serve as a useful tool for detecting enzymatic delipoylation activity.
# (§2) The probe KTlip was incubated with sirtuin and NAD+ at 37° C. in 20 mM HEPES buffer (pH 8.0) containing 150 mM NaCl, 1 mM MgCl2, and 2.7 mM KCl. The enzymatic reaction volume was 50 μL. When the enzymatic reaction was complete, the reaction was applied for absorption and fluorescence measurement. The parameter set for absorbance measurement was as follows: UV-visible light, collection region: 300-550 nm. The parameter set for fluorescence measurements was as follows: λex=480 nm, slit width: 5 nm, collection region: 510-600 nm.
# Sirt1 = target: T3, Sirt1 (Homo sapiens, UniProt Q96EB6); assay: Fluorimeter delipoylation assay of probe KTlip with Sirt1; settings: Sirt1, 37° C., HEPES buffer pH 8.0
# T3 construct: made in house
# T3 sequence (Q96EB6 1-747): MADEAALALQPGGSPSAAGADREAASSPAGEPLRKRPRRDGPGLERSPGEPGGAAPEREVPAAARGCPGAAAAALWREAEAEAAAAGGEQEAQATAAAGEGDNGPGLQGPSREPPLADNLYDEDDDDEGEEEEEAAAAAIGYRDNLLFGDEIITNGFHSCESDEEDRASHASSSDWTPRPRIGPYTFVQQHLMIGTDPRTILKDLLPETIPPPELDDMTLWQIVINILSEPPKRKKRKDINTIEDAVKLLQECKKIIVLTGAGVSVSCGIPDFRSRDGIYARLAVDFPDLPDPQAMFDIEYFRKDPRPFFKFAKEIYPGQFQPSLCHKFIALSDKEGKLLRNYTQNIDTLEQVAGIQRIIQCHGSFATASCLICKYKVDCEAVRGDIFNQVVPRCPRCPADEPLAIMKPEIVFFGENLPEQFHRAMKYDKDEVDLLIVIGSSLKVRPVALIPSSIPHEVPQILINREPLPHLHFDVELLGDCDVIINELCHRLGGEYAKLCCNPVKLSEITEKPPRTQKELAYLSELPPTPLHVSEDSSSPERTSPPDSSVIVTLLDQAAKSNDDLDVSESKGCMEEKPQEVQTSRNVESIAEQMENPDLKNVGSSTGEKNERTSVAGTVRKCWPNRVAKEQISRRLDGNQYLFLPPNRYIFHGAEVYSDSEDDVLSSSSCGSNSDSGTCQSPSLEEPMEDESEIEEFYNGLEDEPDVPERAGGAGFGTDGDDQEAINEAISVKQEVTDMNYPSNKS
# Description: as §1, §2
# Sirt3 = target: T4, Sirt3 (Homo sapiens, UniProt Q9NTG7); assay: Fluorimeter delipoylation assay of probe KTlip with Sirt3; settings: Sirt3, 37° C., HEPES buffer pH 8.0
# T4 construct: made in house
# T4 sequence (Q9NTG7 1-399): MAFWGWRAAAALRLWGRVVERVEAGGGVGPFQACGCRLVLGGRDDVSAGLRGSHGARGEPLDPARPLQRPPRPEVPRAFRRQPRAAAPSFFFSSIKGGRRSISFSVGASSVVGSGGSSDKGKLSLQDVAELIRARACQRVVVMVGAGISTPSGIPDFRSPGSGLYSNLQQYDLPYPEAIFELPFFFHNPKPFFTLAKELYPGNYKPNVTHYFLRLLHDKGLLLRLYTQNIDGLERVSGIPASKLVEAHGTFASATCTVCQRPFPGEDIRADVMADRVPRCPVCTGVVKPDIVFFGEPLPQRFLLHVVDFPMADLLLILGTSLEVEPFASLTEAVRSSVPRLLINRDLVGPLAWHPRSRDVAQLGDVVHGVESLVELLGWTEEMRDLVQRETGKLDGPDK
# Description: as §1, §2
# Sirt5 = target: T5, Sirt5 (Homo sapiens, UniProt Q9NXA8); assay: Fluorimeter delipoylation assay of probe KTlip with Sirt5; settings: Sirt5, 37° C., HEPES buffer pH 8.0
# T5 construct: made in house
# T5 sequence (Q9NXA8 37-310): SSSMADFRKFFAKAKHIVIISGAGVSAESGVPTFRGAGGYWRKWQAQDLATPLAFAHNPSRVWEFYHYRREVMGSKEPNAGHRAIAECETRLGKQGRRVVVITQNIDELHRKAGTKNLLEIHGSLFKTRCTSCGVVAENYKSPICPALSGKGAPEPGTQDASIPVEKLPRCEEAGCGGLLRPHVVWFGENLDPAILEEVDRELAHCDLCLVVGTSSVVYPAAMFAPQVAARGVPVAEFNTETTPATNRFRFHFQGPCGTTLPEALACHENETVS
# Description: as §1, §2
# HDAC8 = target: T6, HDAC8 (Homo sapiens, UniProt Q9BY41); assay: Fluorimeter and HPLC/MS delipoylation assay of probe KTlip with HDAC8
# T6 sequence (Q9BY41 1-377): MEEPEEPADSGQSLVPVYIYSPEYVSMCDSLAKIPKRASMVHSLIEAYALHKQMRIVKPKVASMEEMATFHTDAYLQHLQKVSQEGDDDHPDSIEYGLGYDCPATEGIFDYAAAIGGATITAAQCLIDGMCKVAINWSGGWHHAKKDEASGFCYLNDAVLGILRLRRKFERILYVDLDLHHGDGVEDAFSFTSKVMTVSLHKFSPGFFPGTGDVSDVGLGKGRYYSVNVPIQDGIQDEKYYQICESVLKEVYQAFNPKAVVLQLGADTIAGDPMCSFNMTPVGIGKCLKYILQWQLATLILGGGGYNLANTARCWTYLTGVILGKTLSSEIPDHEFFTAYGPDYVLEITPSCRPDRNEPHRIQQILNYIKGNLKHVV
# Description: as §1, §2
# Sirt2 [2] = target: T1, Sirt2; assay: Steady-state kinetic study of lipoylated peptides with Sirt2 (HPLC); settings: relative to KAlip-1
# Description: The delipoylation activity of HDAC8 was further examined using KAlip-5 and KAlip-1. […] A more detailed assessment of the enzymatic delipoylation reaction was performed. Time-dependent experiments and steady-state kinetics studies were conducted of KAlip-1, 5, 8, and 10 with Sirt2 (Table 1).
# To determine the values of kcat, and Km, purified Sirt2 with 400 μM NAD+ was incubated with different concentrations of lipoylated peptide (0-120 μM) in 20 mM HEPES buffer (pH 8.0) containing 150 mM NaCl, 1 mM MgCl2, and 2.7 mM KCl at 37° C. for 10 min (KAlip-1 and KAlip-10) or 5 min (KAlip-5 and KAlip-8). The reactions were quenched by adding 250 μL of methanol and then applied for HPLC analysis with a linear gradient of 5% to 85% B (acetonitrile) for 30 min. The generated delipoylated product was quantified based on the peak area monitored at 280 nm. The kcat, and Km, values were calculated by curve-fitting Vinitiai/[E] versus [S]. The experiments were conducted in duplicate.
# Sirt2 [3] = target: T1, Sirt2; assay: HPLC delipoylation assay of lipoylated peptides with Sirt2; settings: Sirt2 + NAD+, 37° C., monitored at 280 nm after 40 min
# Description: A total of 11 lipoylated peptides (KAlip-1 to KAlip-11) were synthesised. The peptide sequences were selected from proteins that have been reported as being lipoylated (PDH, KDH, BCKDH, and GCV) and non-lipoylated proteins (e.g., histone). The peptides were synthesized with a standard Fmoc solid phase synthesis approach and characterized by LC-MS. The delipoylation activity was then determined by an HPLC assay. Compared with non-putative peptides, putative lipoylated peptides appeared to be more efficiently hydrolyzed by Sirt2. For example, the delipoylated product of KAlip-1 (derived from histone) after 40 min was determined to be 59%, which is less than that of putative lipoylated substrates such as KAlip-5 and KAlip-6 (derived from PDH).
# The lipoylated peptides KAlip-1 to -11 were incubated with sirtuin and cofactor NAD+ at 37° C. in 20 mM HEPES buffer (pH 8.0) containing 150 mM NaCl, 1 mM MgCl2, and 2.7 mM KCl. The reaction volume was set to 50 μL. At each specific reaction time point, the reaction mixtures were quenched by adding 250 μL of methanol. The reactions were vortexed and centrifuged. Supernatant was collected and then analysed by reverse phase HPLC. The new peak generated was collected for ESI-MS or MALDI-TOF-MS analysis directly.
"Fluorescence increase (Sirt2 [1]; Sirt2, 37° C., HEPES buffer pH 8.0)","First-order rate constant of the reaction (Sirt2 [1]; Sirt2, fluorescence fit)",Fluorescence signal (Sirt1),De-lipoylated product (HPLC and MS analysis) (HDAC8; HDAC8 enzymatic reaction conditions),Catalytic efficiency of Sirt2 compared with nonputative H3K9 lipoyl peptide (KAlip-1) (Sirt2 [2]),Delipoylation product (HPLC yield of delipoylated product) (Sirt2 [3]),Compound,Fluorescence increase (Sirt6),Fluorescence increase (Sirt3),Fluorescence increase (Sirt5),"Fluorescence increase (HDAC8; HDAC8, 37° C., HEPES buffer pH 8.0)"
60 fold,0.013 min⁻¹,much lower fluorescence signal,No de-lipoylated product was observed,–,–,CC(C)(C)OC(=O)N[C@@H](CCCCNC(=O)CCCCC1CCSS1)C(=O)NCCOCCOc1ccc([N+](=O)[O-])c2nonc12 (stereo partly shown) [KTlip],did not show a noticeable fluorescence increase,did not show a noticeable fluorescence increase,did not show a noticeable fluorescence increase,did not show a noticeable fluorescence increase
–,–,–,–,slightly higher,71%,ALESVK(lip)AASEWW [KAlip-10],–,–,–,–
